One assay addresses EGFR L858R (Homo sapiens, UniProt P00533, L858R). Kind of assay: HTRF-based EGFR biochemical assay, L858R. The note with it: 100 μM ATP, enzyme 0.1 nM. As to the method:
(§1) EGFR biochemical activity measurements were carried out using the homogeneous time-resolved fluorescence (HTRF) assay (Cisbio). Inhibitors and DMSO normalizations were first dispensed to empty black low-volume 384-well plates (Corning) with D300 digital liquid dispenser (HP). All reactions were carried out at room temperature and solutions were added to plates with a Multidrop Combi Reagent Dispenser (ThermoFisher). The reaction mixture (10 μL final volume) contained 1 μM tyrosine kinase peptide-biotin substrate and mutant EGFR in a reaction buffer (50 mM HEPES pH 7.0, 5 mM MgCl2, 1 mM MnCl2, 0.01% BSA, 2 mM TCEP, 0.1 mM NaVO4). […] Enzyme reaction solution (2× concentrations, 5 μL) was added to 384-well plates containing compounds and incubated for 30 mins. Enzyme reactions were initiated with the addition of 5 μL of ATP to a final concentration of 100 μM and reacted for 20 mins.
A general note: TR-FRET usually uses a lanthanide donor and a delayed reading to cut background.

The next assay concerns the target EGFR L858R/T790M (Homo sapiens, UniProt P00533, L858R/T790M). The assay is described as follows: HTRF-based EGFR biochemical assay, L858R/T790M. Conditions: 100 μM ATP, enzyme 0.02 nM. The protocol: as §1

Structures are written as SMILES.

As usually defined, the IC50 is the concentration needed to halve the response being measured. Read a low IC50 as higher potency.

Chain of EGFR L858R (P00533 25-1210 L858R): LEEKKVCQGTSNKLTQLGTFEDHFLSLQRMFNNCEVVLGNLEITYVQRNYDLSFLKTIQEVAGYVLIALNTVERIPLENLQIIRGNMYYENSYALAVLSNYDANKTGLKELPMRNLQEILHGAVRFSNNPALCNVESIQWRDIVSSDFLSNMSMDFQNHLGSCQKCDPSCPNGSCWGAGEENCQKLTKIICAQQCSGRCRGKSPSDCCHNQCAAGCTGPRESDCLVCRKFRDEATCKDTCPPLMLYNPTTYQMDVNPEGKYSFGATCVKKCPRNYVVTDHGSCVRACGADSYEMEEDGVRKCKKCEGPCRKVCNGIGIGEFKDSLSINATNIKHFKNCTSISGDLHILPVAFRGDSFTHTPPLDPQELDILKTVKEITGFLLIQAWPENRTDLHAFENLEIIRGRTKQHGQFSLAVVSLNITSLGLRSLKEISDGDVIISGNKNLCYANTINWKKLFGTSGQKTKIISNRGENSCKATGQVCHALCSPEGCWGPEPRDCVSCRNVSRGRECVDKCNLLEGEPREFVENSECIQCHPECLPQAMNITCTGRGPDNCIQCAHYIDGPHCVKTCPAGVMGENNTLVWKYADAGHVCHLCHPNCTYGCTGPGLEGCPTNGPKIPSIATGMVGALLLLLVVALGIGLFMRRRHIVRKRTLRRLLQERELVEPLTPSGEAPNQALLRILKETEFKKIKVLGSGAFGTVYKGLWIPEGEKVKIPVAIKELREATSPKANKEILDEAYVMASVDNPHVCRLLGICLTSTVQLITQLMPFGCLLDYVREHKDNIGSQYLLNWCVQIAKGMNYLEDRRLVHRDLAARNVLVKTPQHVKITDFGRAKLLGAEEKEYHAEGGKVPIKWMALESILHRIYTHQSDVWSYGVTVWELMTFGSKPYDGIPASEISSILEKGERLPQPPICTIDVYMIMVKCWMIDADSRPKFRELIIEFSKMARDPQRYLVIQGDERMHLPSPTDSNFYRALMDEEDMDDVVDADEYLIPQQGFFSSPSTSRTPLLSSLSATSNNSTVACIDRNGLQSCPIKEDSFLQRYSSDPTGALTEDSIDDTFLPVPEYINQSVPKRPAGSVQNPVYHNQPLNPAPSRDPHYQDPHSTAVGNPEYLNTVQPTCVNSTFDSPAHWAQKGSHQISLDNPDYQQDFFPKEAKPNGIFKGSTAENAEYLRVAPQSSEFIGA
Chain of EGFR L858R/T790M (P00533 25-1210 T790M/L858R): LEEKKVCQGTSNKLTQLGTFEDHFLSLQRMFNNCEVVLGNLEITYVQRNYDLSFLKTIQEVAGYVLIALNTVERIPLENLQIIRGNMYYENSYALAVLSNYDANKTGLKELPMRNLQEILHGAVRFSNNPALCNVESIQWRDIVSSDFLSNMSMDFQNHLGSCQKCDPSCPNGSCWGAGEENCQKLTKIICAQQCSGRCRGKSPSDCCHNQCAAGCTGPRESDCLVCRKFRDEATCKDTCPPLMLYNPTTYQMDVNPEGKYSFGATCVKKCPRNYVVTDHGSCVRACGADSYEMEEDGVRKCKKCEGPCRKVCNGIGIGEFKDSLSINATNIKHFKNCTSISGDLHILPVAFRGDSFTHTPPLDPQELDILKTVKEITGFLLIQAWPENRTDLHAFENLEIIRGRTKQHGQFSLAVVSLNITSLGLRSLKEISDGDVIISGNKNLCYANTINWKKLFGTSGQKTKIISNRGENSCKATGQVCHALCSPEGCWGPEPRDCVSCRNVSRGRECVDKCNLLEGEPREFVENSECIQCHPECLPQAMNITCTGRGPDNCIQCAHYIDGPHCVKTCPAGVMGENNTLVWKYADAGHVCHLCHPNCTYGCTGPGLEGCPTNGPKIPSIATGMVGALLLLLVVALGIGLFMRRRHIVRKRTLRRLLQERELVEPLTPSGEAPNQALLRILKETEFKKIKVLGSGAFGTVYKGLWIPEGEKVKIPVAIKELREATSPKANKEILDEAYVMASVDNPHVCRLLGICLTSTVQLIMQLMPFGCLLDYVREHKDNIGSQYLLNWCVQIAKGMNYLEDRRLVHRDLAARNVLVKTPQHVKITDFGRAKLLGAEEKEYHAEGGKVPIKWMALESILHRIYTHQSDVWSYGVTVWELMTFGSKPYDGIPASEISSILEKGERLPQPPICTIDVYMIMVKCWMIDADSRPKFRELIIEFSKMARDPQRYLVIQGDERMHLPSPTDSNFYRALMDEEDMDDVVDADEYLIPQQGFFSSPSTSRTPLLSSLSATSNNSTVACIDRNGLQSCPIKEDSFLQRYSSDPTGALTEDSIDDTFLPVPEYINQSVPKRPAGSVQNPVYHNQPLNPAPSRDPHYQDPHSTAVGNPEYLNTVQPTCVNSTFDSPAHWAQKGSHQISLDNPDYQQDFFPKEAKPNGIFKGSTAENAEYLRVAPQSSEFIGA

In the case of `CSc1nc(-c2cccc(NC(=O)Nc3ccccc3)c2)c(-c2ccnc(NC(C)=O)c2)[nH]1` [Compound 005, N-(4-(2-(methylthio)-4-(3-(3-phenylureido)phenyl)-1H-imidazol-5-yl)pyridin-2-yl)acetamide], the IC50 worked out at 3.6 µM on EGFR L858R and 3.71 µM against EGFR L858R/T790M.
The corresponding values for `CSc1nc(-c2cccc(NC(=O)Nc3cccc(C(F)(F)F)c3)c2)c(-c2ccnc(NC(C)=O)c2)[nH]1` [Compound 016, N-(4(2-(methylthio)-4-(3-(3-(3-(trifluoromethyl)phenyl)ureido)phenyl)-1H-imidazol-5-yl)pyridin-2-yl)acetamide] are 0.512 µM and 0.857 µM.
As to `CSc1nc(-c2cccc(NC(=O)CCc3ccccc3)c2)c(-c2ccnc(NC(C)=O)c2)[nH]1` [Compound 037, N-(3-(5-(2-acetamidopyridin-4-yl)-2-(methylthio)-1H-imidazol-4-yl)phenyl)-3-phenylpropanamide], the IC50 at EGFR L858R worked out at 1.88 µM; against EGFR L858R/T790M, 7.86 µM.
For the compound `CSc1nc(-c2cccc(NC(=O)Cc3c(F)cccc3F)c2)c(-c2ccnc(NC(C)=O)c2)[nH]1` [Compound 053, N-(3-(5-(2-acetamidopyridin-4-yl)-2-(methylthio)-1H-Imidazol-4-yl)phenyl)-2-(2,6-difluorophenyl)acetamide], the IC50 came to 1.3 µM on EGFR L858R and 0.799 µM at EGFR L858R/T790M.
As to `COc1cccc(C(=O)Nc2ccccc2-c2nc(SC)[nH]c2-c2ccnc(NC(C)=O)c2)c1` [Compound 025, N-(2-(5-(2-acetamidopyridin-4-yl)-2-(methylthio)-1H-imidazol-4-yl)phenyl)-3-methoxybenzamide], the IC50 against EGFR L858R and against EGFR L858R/T790M was greater than 100 µM each time.
Turning to `CSc1nc(-c2ccccc2NC(=O)c2cccc3[nH]ccc23)c(-c2ccnc(NC(C)=O)c2)[nH]1` [Compound 023, N-(2-(5-(2-acetamidopyridin-4-yl)-2-(methylthio)-1H-imidazol-4-yl)phenyl)-1H-indole-4-carboxamide], the IC50 at EGFR L858R and on EGFR L858R/T790M was greater than 100 µM in each case.
Turning to `CSc1nc(-c2cccc(NC(=O)Nc3ccc(F)c(Cl)c3)c2)c(-c2ccnc(NC(C)=O)c2)[nH]1` [Compound 018], the IC50 is 1.6 µM against EGFR L858R and 2.2 µM against EGFR L858R/T790M.
Taken in the same sequence, the figures for `CSc1nc(-c2cccc(NC(=O)Nc3ccc(F)cc3)c2)c(-c2ccnc(NC(C)=O)c2)[nH]1` [Compound 017, N-(4-(4-(3-(3-(4-fluorophenyl)ureido)phenyl)-2-(methylthio)-1H-imidazol-5-yl)pyridin-2-yl)acetamide] were 4.13 µM and 5.3 µM.
Taken in the same sequence, the figures for `CSc1nc(-c2cccc(NC(=O)Nc3ccc(Br)cc3)c2)c(-c2ccnc(NC(C)=O)c2)[nH]1` [Compound 015, N-(4-(4-(3-(3-(4-bromophenyl)ureido)phenyl)-2-(methylthio)-1H-imidazol-5-yl)pyridin-2-yl)acetamide] were 6.43 µM and 5.94 µM.
Taken in the same sequence, the figures for `CSc1nc(-c2ccccc2NC(=O)Nc2ccc(Br)cc2)c(-c2ccnc(NC(C)=O)c2)[nH]1` [Compound 019, N-(4-(4-(2(3-(4-bromophenyl)ureido)phenyl)-2-(methylthio)-1H-imidazol-5-yl)pyridin-2-yl)acetamide] were greater than 100 µM and greater than 100 µM.
As for `CSc1nc(-c2cc(NC(=O)Cc3ccccc3)cs2)c(-c2ccnc(NC(C)=O)c2)[nH]1` [Compound 012, N-(5-(5-(2-acetamidopyridin-4-yl)-2-(methylthio)-1H-imidazol-4-yl)thiophen-3-yl)-2-phenylacetamide], the IC50 against EGFR L858R and against EGFR L858R/T790M was greater than 100 µM throughout.
Take `CSc1nc(-c2cccc(NC(=O)C3CCCC3)c2)c(-c2ccnc(NC(C)=O)c2)[nH]1` [Compound 001, N-(3-(5-(2-acetamidopyridin-4-yl)-2-(methylthio)-1H-imidazol-4-yl)phenyl)cyclopentane-carboxamide]: the results for the IC50 against EGFR L858R and at EGFR L858R/T790M were 4.2 µM and 16.7 µM, respectively.
